The source made the active and inactive calls. No rule for the calls is given here.
Tested on: CCRIS mutagenicity, Ames/micronucleus/aberration tests
Assay: CCRIS mutagenicity studies
Excerpt: The CCRIS database contains chemical records with carcinogenicity, mutagenicity, tumor promotion, and tumor inhibition test results. It was developed by the National Cancer Institute (NCI). Data are derived from studies cited in primary journals, current awareness tools, NCI reports, and other sources. Test results have been reviewed by experts in carcinogenesis and mutagenesis.
CCRIS provides historical information from the years 1985 - 2011. It is no longer updated.
This is an archive assay for CCRIS mutagenicity studies.

[1] = Test System: AMES SALMONELLA TYPHIMURIUM, Strain/Indicator: TA98, Metabolic Activation: NONE, Method: PREINCUBATION
[2] = Test System: AMES SALMONELLA TYPHIMURIUM, Strain/Indicator: TA100, Metabolic Activation: NONE, Method: PREINCUBATION
[3] = Test System: AMES SALMONELLA TYPHIMURIUM, Strain/Indicator: TA100, Metabolic Activation: NONE, Method: STANDARD PLATE

With `O=[N+]([O-])c1ccc(Cl)cc1` the mutagenic call (End Point: IN VITRO CHROMOSOMAL ABERRATIONS, Test System: CHL CELLS, Metabolic Activation: NONE) was “active; positive (ploidy changes); precipitation occurred at 0.4, 0.5, and 0.6 mg/ml”, the mutagenic call (End Point: IN VITRO CHROMOSOMAL ABERRATIONS, Test System: CHL CELLS, Metabolic Activation: RAT, LIVER, S-9, SODIUM PHENOBARBITAL AND 5,6-BENZOFLAVONE) was “active; positive (structural changes); authors report equivocal results for ploidy chang” and the mutagenic call (End Point: IN VITRO CHROMOSOMAL ABERRATIONS, Test System: HUMAN PERIPHERAL LYMPHOCYTES, Metabolic Activation: NONE) was “inactive; negative”. For the same compound, the mutagenic call [1] was “inactive; negative”, the mutagenic call (Test System: AMES SALMONELLA TYPHIMURIUM, Strain/Indicator: TA98, Metabolic Activation: RAT, LIVER, S-9, KANECHLOR 500, Method: PREINCUBATION) was “inactive; negative” and the mutagenic call [2] was “inactive; negative”. The mutagenic call (Test System: Ames Salmonella typhimurium, Strain/Indicator: TA98, Metabolic Activation: None, Method: Preincubation) was “inactive; negative”, the mutagenic call (Test System: Ames Salmonella typhimurium, Strain/Indicator: TA98, Metabolic Activation: Rat, Liver, S9, Sodium phenobarbital and 5,6-benzoflavone (10%), Method: Preincubation) was “inactive; negative” and the mutagenic call (Test System: Ames Salmonella typhimurium, Strain/Indicator: TA98, Metabolic Activation: Rat, Liver, S9, Sodium phenobarbital and 5,6-benzoflavone, Method: Preincubation) was “inactive; negative”. The mutagenic call (Test System: Ames Salmonella typhimurium, Strain/Indicator: TA100, Metabolic Activation: None, Method: Preincubation) was “inactive; negative”, the mutagenic call (Test System: Ames Salmonella typhimurium, Strain/Indicator: TA1535, Metabolic Activation: None, Method: Preincubation) was “inactive; negative” and the mutagenic call (Test System: Ames Salmonella typhimurium, Strain/Indicator: TA1535, Metabolic Activation: Rat, Liver, S9, Sodium phenobarbital and 5,6-benzoflavone (10%), Method: Preincubation) was “inactive; negative”. The mutagenic call (Test System: Ames Salmonella typhimurium, Strain/Indicator: TA1537, Metabolic Activation: None, Method: Preincubation) was “inactive; negative”, the mutagenic call (Test System: Ames Salmonella typhimurium, Strain/Indicator: TA1537, Metabolic Activation: Rat, Liver, S9, Sodium phenobarbital and 5,6-benzoflavone (10%), Method: Preincubation) was “inactive; negative” and the mutagenic call (Test System: Ames Salmonella typhimurium, Strain/Indicator: TA1537, Metabolic Activation: Rat, Liver, S9, Sodium phenobarbital and 5,6-benzoflavone, Method: Preincubation) was “inactive; negative”. For the same compound, the mutagenic call (Test System: E. coli, Strain/Indicator: WP2uvrA/PKM101, Metabolic Activation: None, Method: Preincubation) was “inactive; negative”, the mutagenic call (Test System: E. coli, Strain/Indicator: WP2uvrA/PKM101, Metabolic Activation: Rat, Liver, S9, Sodium phenobarbital and 5,6-benzoflavone (10%), Method: Preincubation) was “inactive; negative” and the mutagenic call (Test System: E. coli, Strain/Indicator: WP2uvrA/pKM101, Metabolic Activation: None, Method: Preincubation) was “inactive; negative”. For the same compound, the mutagenic call (Test System: E. coli, Strain/Indicator: WP2uvrA/pKM101, Metabolic Activation: Rat, Liver, S9, Sodium phenobarbital and 5,6-benzoflavone, Method: Preincubation) was “inactive; negative”.
`FC(F)C(F)C(F)(F)F` (centres undefined) was tested, and the mutagenic call (Test System: AMES SALMONELLA TYPHIMURIUM, Strain/Indicator: TA97, Metabolic Activation: NONE, Method: CLOSED GLASS VESSEL) was “inactive; negative”, the mutagenic call (Test System: AMES SALMONELLA TYPHIMURIUM, Strain/Indicator: TA97, Metabolic Activation: RAT LIVER S-9, AROCLOR 1254, Method: CLOSED GLASS VESSEL) was “inactive; negative” and the mutagenic call (Test System: AMES SALMONELLA TYPHIMURIUM, Strain/Indicator: TA98, Metabolic Activation: NONE, Method: CLOSED GLASS VESSEL) was “inactive; negative”. For the same compound, the mutagenic call (Test System: AMES SALMONELLA TYPHIMURIUM, Strain/Indicator: TA98, Metabolic Activation: RAT LIVER S-9, AROCLOR 1254, Method: CLOSED GLASS VESSEL) was “inactive; negative”, the mutagenic call (Test System: AMES SALMONELLA TYPHIMURIUM, Strain/Indicator: TA100, Metabolic Activation: NONE, Method: CLOSED GLASS VESSEL) was “inactive; negative” and the mutagenic call (Test System: AMES SALMONELLA TYPHIMURIUM, Strain/Indicator: TA100, Metabolic Activation: RAT LIVER S-9, AROCLOR 1254, Method: CLOSED GLASS VESSEL) was “inactive; negative”. The mutagenic call (Test System: AMES SALMONELLA TYPHIMURIUM, Strain/Indicator: TA1535, Metabolic Activation: NONE, Method: CLOSED GLASS VESSEL) was “inactive; negative”, the mutagenic call (Test System: AMES SALMONELLA TYPHIMURIUM, Strain/Indicator: TA1535, Metabolic Activation: RAT LIVER S-9, AROCLOR 1254, Method: CLOSED GLASS VESSEL) was “inactive; negative” and the mutagenic call (Test System: ESCHERICHIA COLI, Strain/Indicator: WP2 UVR A, Metabolic Activation: NONE, Method: CLOSED GLASS VESSEL) was “inactive; negative”. For the same compound, the mutagenic call (Test System: ESCHERICHIA COLI, Strain/Indicator: WP2 UVR A, Metabolic Activation: RAT LIVER S-9, AROCLOR 1254, Method: CLOSED GLASS VESSEL) was “inactive; negative”.
`CCCCN(CCCC)[N+](=O)[O-]` was tested, and the mutagenic call (Test System: E. COLI, Strain/Indicator: WP2 (HCR-), Metabolic Activation: RAT, LIVER, MICROSOMES, PHENOBARBITAL) was “active; positive”.
In the case of `Cc1nc2ccc(N)c(C)c2nc1C`, the mutagenic call [1] is reported as “inactive; negative”, the mutagenic call (Test System: AMES SALMONELLA TYPHIMURIUM, Strain/Indicator: TA98, Metabolic Activation: RAT, LIVER, S-9, PCB, Method: PREINCUBATION) is reported as “active; positive” and the mutagenic call [2] is reported as “inactive; negative”. For the same compound, the mutagenic call (Test System: AMES SALMONELLA TYPHIMURIUM, Strain/Indicator: TA100, Metabolic Activation: RAT, LIVER, S-9, PCB, Method: PREINCUBATION) was “active; positive”.
For `CCCCCN1C2c3ccccc3-c3ccccc3C21` (centres undefined), the mutagenic call [3] was “active; positive”.
`O=C(OC1CCCCC1)c1ccccc1C(=O)OC1CCCCC1` was tested, and the mutagenic call (Test System: AMES SALMONELLA TYPHIMURIUM, Strain/Indicator: TA98, Metabolic Activation: HAMSTER, LIVER, S-9, AROCLOR 1254 (10%), Method: PREINCUBATION) was “inactive; negative”, the mutagenic call [1] was “inactive; negative” and the mutagenic call (Test System: AMES SALMONELLA TYPHIMURIUM, Strain/Indicator: TA98, Metabolic Activation: RAT, LIVER, S-9, AROCLOR 1254 (10%), Method: PREINCUBATION) was “inactive; negative”. The mutagenic call (Test System: AMES SALMONELLA TYPHIMURIUM, Strain/Indicator: TA100, Metabolic Activation: HAMSTER, LIVER, S-9, AROCLOR 1254 (10%), Method: PREINCUBATION) was “inactive; negative”, the mutagenic call [2] was “inactive; negative” and the mutagenic call (Test System: AMES SALMONELLA TYPHIMURIUM, Strain/Indicator: TA100, Metabolic Activation: RAT, LIVER, S-9, AROCLOR 1254 (10%), Method: PREINCUBATION) was “inactive; negative”. The mutagenic call (Test System: AMES SALMONELLA TYPHIMURIUM, Strain/Indicator: TA1535, Metabolic Activation: HAMSTER, LIVER, S-9, AROCLOR 1254 (10%), Method: PREINCUBATION) was “inactive; negative”, the mutagenic call (Test System: AMES SALMONELLA TYPHIMURIUM, Strain/Indicator: TA1535, Metabolic Activation: NONE, Method: PREINCUBATION) was “inactive; negative” and the mutagenic call (Test System: AMES SALMONELLA TYPHIMURIUM, Strain/Indicator: TA1535, Metabolic Activation: RAT, LIVER, S-9, AROCLOR 1254 (10%), Method: PREINCUBATION) was “inactive; negative”. The mutagenic call (Test System: AMES SALMONELLA TYPHIMURIUM, Strain/Indicator: TA1537, Metabolic Activation: HAMSTER, LIVER, S-9, AROCLOR 1254 (10%), Method: PREINCUBATION) was “inactive; negative”, the mutagenic call (Test System: AMES SALMONELLA TYPHIMURIUM, Strain/Indicator: TA1537, Metabolic Activation: NONE, Method: PREINCUBATION) was “inactive; negative” and the mutagenic call (Test System: AMES SALMONELLA TYPHIMURIUM, Strain/Indicator: TA1537, Metabolic Activation: RAT, LIVER, S-9, AROCLOR 1254 (10%), Method: PREINCUBATION) was “inactive; negative”.
In the case of `COCC(=O)N(c1c(C)cccc1C)C(C)C(=O)OC` (centres undefined), the mutagenic call (End Point: In vitro micronucleus, Test System: Human lymphocytes, Metabolic Activation: None) is reported as “inactive; negative (positive only at 50 ug/ml dose)” and the mutagenic call (End Point: In vivo micronucleus, Test System: Bone marrow polychromatic erythrocytes, Species: Rat, Strain/Sex: Wistar/Male, Route: Oral) is reported as “active; positive (at high dose)”.
In the case of `COc1cc(NS(C)(=O)=O)ccc1Nc1c2ccc(N=[N+]=[N-])cc2nc2c(C)cccc12`, the mutagenic call (Test System: AMES SALMONELLA TYPHIMURIUM, Strain/Indicator: TA1537, Metabolic Activation: NONE, Method: STANDARD PLATE) is reported as “active; positive”.
With `COc1cccc2c1C(=O)c1c(O)c3c(c(O)c1C2=O)C[C@@](O)(C(=O)CO)C[C@@H]3O` the mutagenic call (Test System: AMES SALMONELLA TYPHIMURIUM, Strain/Indicator: TA98, Metabolic Activation: NONE, Method: STANDARD PLATE) was “active; positive”, the mutagenic call (Test System: AMES SALMONELLA TYPHIMURIUM, Strain/Indicator: TA98, Metabolic Activation: RAT, LIVER, S-9, AROCLOR 1254, Method: STANDARD PLATE) was “active; positive” and the mutagenic call [3] was “active; positive”. The mutagenic call (Test System: AMES SALMONELLA TYPHIMURIUM, Strain/Indicator: TA1538, Metabolic Activation: NONE, Method: STANDARD PLATE) was “active; positive”.
